Data as given in the NIST ThermoML archive (doi:10.1021/acs.jced.7b00690).

Assay: mn = molality of the nth substance listed, in mol/kg
Conditions: 100 kPa, Liquid, Vibrating tube method

O=C([O-])C(=O)[O-].[Na+].[Na+] [sodium oxalate] + O
Conditions	mass density [kg/m3]
298.15 K, m1 = 0.263	1025.1
298.15 K, m1 = 0.265	1020.9
298.15 K, m1 = 0.272	1020.9
323.15 K, m1 = 0.317	1020.3
323.15 K, m1 = 0.334	1022.4
343.15 K, m1 = 0.385	1016.5
